Results: US20250108100A1, “C-TERMINAL FRAGMENT OF APOLIPOPROTEIN E AND APPLICATION THEREOF IN INHIBITING y-SECRETASE ACTIVITY” (SYNPHATEC (SHANGHAI) BIOPHARMACEUTICAL TECHNOLOGY CO., LTD., priority 2022, published 2025)
“Also recorded” adds a separate entry of the source.

Key:
[1] = test system: ADAM10, BACE1, PS1 and PS2; test: mRNA (qRT-PCR) and protein (Western blot) expression of APP secretases in HEK 293T cells; format: cell-based, human; conditions: qRT-PCR and Western blot, vs GFP control
Procedure: (§1) • a) A plasmid expressing the target protein in mammalian cells was constructed, and the protein expression promoter is CAG. • b) The target protein was expressed in HEK 293T cell line. Cells were subcultured one day before transfection, and transfection was performed when the degree of cell adhesion reached 70%-80%. The transfection reagent was lipofectamine2000 (ThermoFisher). • c) 4-6 hours post transfection, the medium were replaced with fresh cell culture medium. • d) 36-48 hours post transfection, the cells were lysed (10% 1M tris-HCl (pH=6.8), 4% SDS, 20% glycerol, 0.01% bromophenol blue), and the protein samples were collected and used for Western blot or stored in a −80° C. freezer. • e) Polyacrylamide gel electrophoresis. Before protein loading, the protein was boiled at 98° C. for 10 min, and then centrifuged at 12000 rpm for 10 min. Electrophoresis: 80V for the upper stacking gel; 120V for the lower separating gel. • f) Protein transfer. […]
Quantitect SYBR-Green qRT-PCR kit from Qiagen was used to quantitatively analyze the relative content of mRNA. qRT-PCR primers were listed in Table 2. […]

[2] = test system: APP co-expressed in mouse neuron cell line N2A; test: α-CTF produced by APP co-expressed in N2A cells (Western blot); format: cell-based; conditions: Western blot, vs GFP control
Procedure: (§2) Plasmids were transfected in HEK 293T or N2A cells for 36-48 hours and then lysed in cell lysis buffer [10% 1M tris-HCl (pH=6.8), 4% SDS, 20% glycerol, 0.01% bromophenol blue]. Lysates were shaken at room temperature for 10 min, then boiled for 10 min, and centrifuged at 12,000×g for 10 min. Proteins were run on 8% or 12% Tris-glycine SDS-PAGE and transferred to PVDF membranes (Life Technologies). Samples were incubated overnight at 4° C. with primary antibody diluted in 5% BSA buffer (in 1×TBST). After washing 3 times with 1×TBST, they were incubated with secondary antibody diluted in 5% BSA buffer (in 1×TBST) for 2 hours at room temperature. Finally, after washing 3 times with 1×TBST, the signal was detected by ECL Western blotting substrate (Solarbio, PE0010).
(§3) Data were analyzed by GraphPad Prism software (v6) using unpaired, paired, or one-sample t-tests. Aβ40 and Aβ42 levels were normalized to the corresponding GFP controls. α-CTF levels were normalized to FL-APP and corresponding GFP controls. All data are represented as mean±SEM. Statistical significance was defined as p<0.05. One, two, three and four stars (*) in the graph indicate p-values <0.05, <0.01, <0.001 and <0.0001, respectively.

[3] = test system: HEK 293T cells expressing APP; test: APP-expressing HEK 293T cells co-incubated with culture medium containing secreted ApoE2 or ApoE CT: α-CTF; format: cell-based, human; conditions: vs GFP control
Procedure: as §1

[4] = Stability of ApoE2 in conditioned culture medium (Western blot); format: physicochemical; conditions: 37° C.; 48 hours
Procedure: N=9. […] The original ApoE2-containing culture medium (lane 1), the ApoE2-containing culture medium after incubation with untransfected cells for 48 hours (lane 2), and the ApoE2-containing culture medium separately stored in a 37° C. incubator for 48 hours (lane 3). […] DAPI, nuclear marker. […] MAP2, marker of mature neurons; DAPI, nuclear marker.

[5] = test system: human APP co-expressed in HEK 293T cells; test: α-CTF produced by APP co-expressed in HEK 293T cells (Western blot); format: cell-based; conditions: Western blot, vs GFP control
Procedure: • a) A plasmid expressing the target protein in mammalian cells was constructed, and the protein expression promoter is CAG. • b) The target protein was expressed in HEK 293T cell line. Cells were subcultured one day before transfection, and transfection was performed when the degree of cell adhesion reached 70%-80%. The transfection reagent was lipofectamine2000 (ThermoFisher). • c) 4-6 hours post transfection, the medium were replaced with fresh cell culture medium. • d) 36-48 hours post transfection, the cells were lysed (10% 1M tris-HCl (pH=6.8), 4% SDS, 20% glycerol, 0.01% bromophenol blue), and the protein samples were collected and used for Western blot or stored in a −80° C. freezer. • e) Polyacrylamide gel electrophoresis. Before protein loading, the protein was boiled at 98° C. for 10 min, and then centrifuged at 12000 rpm for 10 min. Electrophoresis: 80V for the upper stacking gel; 120V for the lower separating gel. • f) Protein transfer. The filter paper was soaked in the electrophoresis solution before use, and the PVDF membrane was put in methanol for 10s to activate, and the gel after electrophoresis was taken out from the electrophoresis tank, put in the order of filter paper—PVD membrane—gel-filter paper from bottom to top, and they were put into the transfer instrument, with transferring in constant current at 0.1 A for 70 min. • g) Blocking and antibody incubation: the transferred PVDF membrane was placed in 5% BSA/TBST blocking solution, and blocked on a shaker at room temperature for 1 hour. The primary antibody was used to incubate at 4° C. overnight on a shaker (12-16 h); 1×TBST was used to wash three times, once every 10 minutes; the secondary antibody was used to incubate, shaked at room temperature for 1-2 h; 1×TBST was used to wash three times, once every 10 minutes. • h) Imaging by development: development was performed with ECL chemiluminescence hypersensitive chromogenic reagent.
as §2, §3

Substance: ApoE2: human apolipoprotein E2, full-length 299 amino acid residues, SEQ ID NO: 12
- mRNA and protein expression of ADAM10, BACE1, PS1 and PS2 [1]: not altered
- α-CTF produced by co-expressed APP [2]: significantly increased the α-CTF levels
- α-CTF produced by APP in cells co-incubated with protein in culture medium [3]: does not significantly alter α-CTF levels; also recorded: does not change the α-CTF; also recorded: does not alter the α-CTF
- stability in conditioned medium [4]: can exist stably
- α-CTF produced by co-expressed APP [5]: can significantly increase α-CTF; also recorded: significantly increased the α-CTF levels
